Reference: ChEMBL document CHEMBL5260810, “Inhibition of bromodomain-containing protein 9 for the prevention of epigenetically-defined drug resistance” (Bioorg Med Chem Lett, 2017)

Key:
MOLM-13 = test: Cytotoxicity against human MOLM-13 cells measured after 8 days; type: functional, cell-based; conditions: MOLM-13, 192 h
[1] = Cytotoxicity against mouse LA-4 cells measured after 8 days; type: functional, cell-based; conditions: LA-4, 192 h
OCI-AML2 = test: Cytotoxicity against human OCI-AML2 cells measured after 8 days; type: functional, cell-based; conditions: OCI-AML2, 192 h
RPMI-8226 = test: Cytotoxicity against human RPMI-8226 cells measured after 8 days; type: functional, cell-based; conditions: RPMI-8226, 192 h
[2] = Cytotoxicity against human NCE-G 112 cells measured after 8 days; type: functional, cell-based; conditions: NCE-G 112, 192 h
[3] = Cytotoxicity against human NCE-G 44 cells measured after 8 days; type: functional, cell-based; conditions: NCE-G 44, 192 h
A20 = test: Cytotoxicity against mouse A20 cells measured after 8 days; type: functional, cell-based; conditions: A20, 192 h
Granta-519 = test: Cytotoxicity against human Granta-519 cells measured after 8 days; type: functional, cell-based; conditions: Granta-519, 192 h
[4] = Cytotoxicity against human Ri-1 cells measured after 8 days; type: functional, cell-based; conditions: Ri-1, 192 h
SIMA = test: Cytotoxicity against human SIMA cells measured after 8 days; type: functional, cell-based; conditions: 192 h
[5] = Cytotoxicity against human SM1 cells measured after 8 days; type: functional, cell-based; conditions: SM1, 192 h
A2780 = test: Cytotoxicity against human A2780 cells measured after 8 days; type: functional, cell-based; conditions: A2780, 192 h
[6] = Cytotoxicity against human HCC1159 cells measured after 8 days; type: functional, cell-based; conditions: HCC1159, 192 h
[7] = Cytotoxicity against human OVCA432 cells measured after 8 days; type: functional, cell-based; conditions: OVCA432, 192 h
[8] = Cytotoxicity against mouse JC cells measured after 8 days; type: functional, cell-based; conditions: 192 h
MDA-MB-468 = test: Cytotoxicity against human MDA-MB-468 cells measured after 8 days; type: functional, cell-based; conditions: MDA-MB-468, 192 h
[9] = Cytotoxicity against human SUM52PE cells measured after 8 days; type: functional, cell-based; conditions: 192 h
BXPC-3 = test: Cytotoxicity against human BXPC-3 cells measured after 8 days; type: functional, cell-based; conditions: BXPC-3, 192 h
Hs 766 = test: Cytotoxicity against human Hs 766 cells measured after 8 days; type: functional, cell-based; conditions: Hs 766, 192 h
[10] = Cytotoxicity against human KPP14388 cells measured after 8 days; type: functional, cell-based; conditions: KPP14388, 192 h
[11] = Cytotoxicity against human KPP14449 cells measured after 8 days; type: functional, cell-based; conditions: KPP14449, 192 h
[12] = Cytotoxicity against mouse LTPA cells measured after 8 days; type: functional, cell-based; conditions: 192 h
[13] = Cytotoxicity against human PaTu 8902 cells measured after 8 days; type: functional, cell-based; conditions: PaTu 8902, 192 h
[14] = Cytotoxicity against human CL-34 cells measured after 8 days; type: functional, cell-based; conditions: CL-34, 192 h
CT26.WT = test: Cytotoxicity against mouse CT26.WT cells measured after 8 days; type: functional, cell-based; conditions: 192 h
[15] = Cytotoxicity against human PK-45H cells measured after 8 days; type: functional, cell-based; conditions: 192 h
[16] = Cytotoxicity against mouse TRAMP-C2 cells measured after 8 days; type: functional, cell-based; conditions: TRAMP-C2, 192 h
[17] = Cytotoxicity against human 4498-16820 Mel-BR1 cells measured after 8 days; type: functional, cell-based; conditions: 4498-16820 Mel-BR1, 192 h
B16-F10 = test: Cytotoxicity against mouse B16-F10 cells measured after 8 days; type: functional, cell-based; conditions: B16-F10, 192 h
[18] = Cytotoxicity against human VMRC-RCW cells measured after 8 days; type: functional, cell-based; conditions: 192 h
[19] = Cytotoxicity against human HuH-1 cells measured after 8 days; type: functional, cell-based; conditions: HuH-1, 192 h
[20] = Cytotoxicity against human RERF-GC-1B cells measured after 8 days; type: functional, cell-based; conditions: 192 h
BEN = test: Cytotoxicity against human BEN cells measured after 8 days; type: functional, cell-based; conditions: 192 h
CGTH-W-1 = test: Cytotoxicity against human CGTH-W-1 cells measured after 8 days; type: functional, cell-based; conditions: CGTH-W-1, 192 h
[21] = Cytotoxicity against human COLO 685 cells measured after 8 days; type: functional, cell-based; conditions: COLO 685, 192 h
[22] = Cytotoxicity against human HCC1482 cells measured after 8 days; type: functional, cell-based; conditions: HCC1482, 192 h
HEC-1B cell line = test: Cytotoxicity against human HEC-1B cell line measured after 8 days; type: functional, cell-based; conditions: 192 h
MES-SA = test: Cytotoxicity against human MES-SA cells measured after 8 days; type: functional, cell-based; conditions: 192 h
[23] = molecular target: Aurora kinase B (Homo sapiens) (UniProt Q96GD4); test: Inhibition of Aurora B (unknown origin) at 1 uM relative to control
[24] = molecular target: T1, Ephrin type-A receptor 1 (Homo sapiens) (UniProt P21709); test: Inhibition of EphA1 (unknown origin) at 1 uM relative to control
T1 sequence (whole entry): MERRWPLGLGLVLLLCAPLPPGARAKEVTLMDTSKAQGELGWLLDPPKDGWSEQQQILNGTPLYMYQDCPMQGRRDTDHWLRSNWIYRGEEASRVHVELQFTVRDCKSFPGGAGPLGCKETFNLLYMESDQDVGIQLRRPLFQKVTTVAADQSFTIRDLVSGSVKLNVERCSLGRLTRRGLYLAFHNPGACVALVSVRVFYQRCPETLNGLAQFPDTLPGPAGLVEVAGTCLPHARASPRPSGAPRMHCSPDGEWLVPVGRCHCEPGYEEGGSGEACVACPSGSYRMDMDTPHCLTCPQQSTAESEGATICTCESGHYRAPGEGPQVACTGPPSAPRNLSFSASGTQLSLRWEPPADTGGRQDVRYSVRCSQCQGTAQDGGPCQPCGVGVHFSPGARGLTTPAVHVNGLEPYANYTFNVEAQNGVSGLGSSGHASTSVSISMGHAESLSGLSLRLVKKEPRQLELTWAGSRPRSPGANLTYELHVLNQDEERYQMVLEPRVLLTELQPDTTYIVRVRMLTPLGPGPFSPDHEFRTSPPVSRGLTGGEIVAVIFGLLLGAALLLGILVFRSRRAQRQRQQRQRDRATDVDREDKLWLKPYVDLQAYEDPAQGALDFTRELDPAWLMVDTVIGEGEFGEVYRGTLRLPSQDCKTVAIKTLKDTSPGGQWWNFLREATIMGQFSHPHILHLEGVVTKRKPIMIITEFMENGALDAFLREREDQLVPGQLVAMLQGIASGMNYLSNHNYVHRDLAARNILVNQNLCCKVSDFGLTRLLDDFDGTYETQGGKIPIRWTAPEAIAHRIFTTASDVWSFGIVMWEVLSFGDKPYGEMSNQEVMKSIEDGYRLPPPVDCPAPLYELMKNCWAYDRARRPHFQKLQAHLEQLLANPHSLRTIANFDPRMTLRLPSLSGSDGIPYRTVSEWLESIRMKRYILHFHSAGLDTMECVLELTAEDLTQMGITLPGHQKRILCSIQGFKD

[25] = molecular target: TGF-beta receptor type-1 (Homo sapiens) (UniProt P36897); test: Inhibition of TGFBR1 (unknown origin) at 1 uM relative to control
[26] = molecular target: Histamine H2 receptor (Homo sapiens) (UniProt P25021); test: Displacement of [125I]APT from human recombinant histamine H2 receptor at 10 uM after 120 mins by scintillation counting analysis relative to control
Sequence of Histamine H2 receptor (Homo sapiens) (P25021 whole entry): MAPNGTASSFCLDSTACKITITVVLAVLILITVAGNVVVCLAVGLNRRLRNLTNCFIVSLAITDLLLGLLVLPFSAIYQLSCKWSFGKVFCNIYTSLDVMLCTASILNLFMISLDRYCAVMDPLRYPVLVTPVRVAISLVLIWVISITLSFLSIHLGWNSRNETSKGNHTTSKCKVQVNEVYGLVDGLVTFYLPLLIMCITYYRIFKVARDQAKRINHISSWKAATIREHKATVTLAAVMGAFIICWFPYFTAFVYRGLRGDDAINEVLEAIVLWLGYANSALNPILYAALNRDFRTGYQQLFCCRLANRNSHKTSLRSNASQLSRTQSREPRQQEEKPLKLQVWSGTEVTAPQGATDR

Sequence of Aurora kinase B (Homo sapiens) (Q96GD4 whole entry): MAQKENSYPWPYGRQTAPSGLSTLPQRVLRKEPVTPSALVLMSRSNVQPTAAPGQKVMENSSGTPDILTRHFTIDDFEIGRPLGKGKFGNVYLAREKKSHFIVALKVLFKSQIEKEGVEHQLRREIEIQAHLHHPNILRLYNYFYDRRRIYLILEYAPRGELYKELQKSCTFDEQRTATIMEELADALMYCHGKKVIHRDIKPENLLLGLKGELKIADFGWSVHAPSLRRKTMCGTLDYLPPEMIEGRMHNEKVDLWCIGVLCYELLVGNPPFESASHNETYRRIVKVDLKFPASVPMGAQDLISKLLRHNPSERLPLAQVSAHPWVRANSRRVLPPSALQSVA
Sequence of TGF-beta receptor type-1 (Homo sapiens) (P36897 whole entry): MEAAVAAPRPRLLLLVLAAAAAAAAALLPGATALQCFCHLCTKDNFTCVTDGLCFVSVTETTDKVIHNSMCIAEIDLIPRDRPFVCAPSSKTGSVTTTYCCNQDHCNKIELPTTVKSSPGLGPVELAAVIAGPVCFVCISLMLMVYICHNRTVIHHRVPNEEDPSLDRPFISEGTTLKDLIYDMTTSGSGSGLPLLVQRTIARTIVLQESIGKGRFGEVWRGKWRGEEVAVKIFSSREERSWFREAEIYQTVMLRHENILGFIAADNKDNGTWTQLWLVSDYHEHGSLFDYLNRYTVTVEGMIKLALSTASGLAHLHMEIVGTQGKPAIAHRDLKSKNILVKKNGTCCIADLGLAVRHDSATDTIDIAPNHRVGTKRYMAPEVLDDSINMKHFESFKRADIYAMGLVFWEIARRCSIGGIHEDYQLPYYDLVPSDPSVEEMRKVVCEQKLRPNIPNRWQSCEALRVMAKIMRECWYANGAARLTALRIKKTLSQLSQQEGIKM

SMILES: C/C=C/Cn1cc(-c2ccc(C(C)(C)O)cc2OC)c2cc[nH]c2c1=O
- IC50 (MOLM-13): 6.19 µM
- IC50 [1]: 20 µM
- IC50 (OCI-AML2): 14.2 µM
- IC50 (RPMI-8226): 20 µM
- IC50 [2]: 20 µM
- IC50 [3]: 20 µM
- IC50 (A20): 3.43 µM
- IC50 (Granta-519): 20 µM
- IC50 [4]: 20 µM
- IC50 (SIMA): 20 µM
- IC50 [5]: 11.2 µM
- IC50 (A2780): 20 µM
- IC50 [6]: 20 µM
- IC50 [7]: 20 µM
- IC50 [8]: 20 µM
- IC50 (MDA-MB-468): 20 µM
- IC50 [9]: 20 µM
- IC50 (BXPC-3): 20 µM
- IC50 (Hs 766): 20 µM
- IC50 [10]: 20 µM
- IC50 [11]: 20 µM
- IC50 [12]: 20 µM
- IC50 [13]: 20 µM
- IC50 [14]: 20 µM
- IC50 (CT26.WT): 20 µM
- IC50 [15]: 20 µM
- IC50 [16]: 20 µM
- IC50 [17]: 15.5 µM
- IC50 (B16-F10): 20 µM
- IC50 [18]: 20 µM
- IC50 [19]: 20 µM
- IC50 [20]: 20 µM
- IC50 (BEN): 20 µM
- IC50 (CGTH-W-1): 20 µM
- IC50 [21]: 20 µM
- IC50 [22]: 20 µM
- IC50 (HEC-1B cell line): 20 µM
- IC50 (MES-SA): 7.08 µM
- inhibition [23]: -0.5%
- inhibition [24]: 4%
- inhibition [25]: 0%
- Activity [26]: 1%

SMILES: C/C=C/Cn1cc(-c2ccc(C(=O)N3CCOCC3)cc2)c2cc[nH]c2c1=O
- IC50 (MOLM-13): 9.33 µM
- IC50 [1]: 12 µM
- IC50 (OCI-AML2): 8.38 µM
- IC50 (RPMI-8226): 20 µM
- IC50 [2]: 20 µM
- IC50 [3]: 20 µM
- IC50 (A20): 7 µM
- IC50 (Granta-519): 20 µM
- IC50 [4]: 20 µM
- IC50 (SIMA): 20 µM
- IC50 [5]: 17.9 µM
- IC50 (A2780): 20 µM
- IC50 [6]: 20 µM
- IC50 [7]: 20 µM
- IC50 [8]: 20 µM
- IC50 (MDA-MB-468): 20 µM
- IC50 [9]: 20 µM
- IC50 (BXPC-3): 20 µM
- IC50 (Hs 766): 20 µM
- IC50 [10]: 20 µM
- IC50 [11]: 20 µM
- IC50 [12]: 20 µM
- IC50 [13]: 20 µM
- IC50 [14]: 20 µM
- IC50 (CT26.WT): 20 µM
- IC50 [15]: 20 µM
- IC50 [16]: 20 µM
- IC50 [17]: 20 µM
- IC50 (B16-F10): 20 µM
- IC50 [18]: 20 µM
- IC50 [19]: 20 µM
- IC50 [20]: 20 µM
- IC50 (BEN): 20 µM
- IC50 (CGTH-W-1): 20 µM
- IC50 [21]: 20 µM
- IC50 [22]: 20 µM
- IC50 (HEC-1B cell line): 10.6 µM
- IC50 (MES-SA): 20 µM
- inhibition [23]: -0.4%
- inhibition [24]: 0.8%
- Activity [26]: 6%

SMILES: C/C=C/Cn1cc(-c2cc(OC)c(C(=O)N3CCOCC3)cc2OC)c2cc(C)[nH]c2c1=O
- IC50 (Granta-519): 2 µM
- IC50 (MDA-MB-468): 2 µM
- IC50 (BEN): 2 µM
- inhibition [23]: 4.5%
- inhibition [24]: 4%
- inhibition [25]: -1.5%
- Activity [26]: -5%
